Laboratory results: PMC9811530 (Experimental and Clinical Endocrinology & Diabetes, 2022)
“Also recorded” adds a separate entry of the source. Where two headings read alike, the source gives them in different places.

Assays:
[1] = Metabolic parameters; format: in vivo, human
[2] = format: in vivo, human; details: for BI 187004 Plasma Cday15: 24 h after last dose; for BI 187004 Plasma Cday15 / fe0–24 / CL/F SS / fe0–24,SS / BI 187004 Plasma Cday2 / Cmax: gMean (%gCV); for BI 187004 Plasma Cday2: immediately after second dose; for CL renal / Vd/F / AUC / AUC(0-t) / half-life / Cmax / Tmax: human, oral; for CL renal: plasma and urine; for Vd/F / AUC / AUC(0-t) / half-life / Cmax / Tmax: plasma; for Tmax: t max, median (min–max)
[3] = human, in vivo
[4] = In vitro plasma protein binding; format: in vitro ADME; details: internal communication, data not shown
[5] = system: HPA axis; experiment: Total urinary corticosteroid excretion; format: in vivo, human
[6] = Safety and tolerability
[7] = BI 187004 concentration in subcutaneous adipose tissue biopsies; details: gMean (%gCV); for BI 187004 AT Cday15: 24 h after last dose; for BI 187004 AT Cday2: immediately after second dose
[8] = In vitro blood cell partitioning; format: in vitro ADME; details: 10 and 100 nmol/L, internal communication, data not shown
[9] = cited from earlier work
[10] = system: hypothalamus-pituitary-adrenal (HPA) axis; experiment: Hormones of the HPA axis; format: in vivo, human; details: all dose groups, during treatment

N#Cc1ccc2c(c1)[C@H]1CCCN(C(=O)c3ccc4[nH]cnc4c3)[C@H]1C2 [BI 187004]
fasting plasma glucose over the treatment period ([1]; 14 days): not affected | body weight ([1]; baseline, day 15, end-of-trial): remained unchanged; also recorded: Changes in body weight could not be observed | BI 187004 Plasma Cday15 ([2]; 10 mg): 322 (37.4) nmol/L | fe0–24 ([2]; 10 mg, Day 1): 5.72 (27.2) % | CL/F SS ([2]; 10 mg, Day 14): 2.01 (28.2) L/h | fe0–24,SS ([2]; 10 mg, Day 14): 10.3 (26.6) % | BI 187004 Plasma Cday2 ([2]; 10 mg): 156 (56.1) nmol/L | BI 187004 Plasma Cday15 ([2]; 20 mg): 520 (25.6) nmol/L | fe0–24 ([2]; 20 mg, Day 1): 6.14 (20.8) % | CL/F SS ([2]; 20 mg, Day 14): 2.53 (24.7) L/h | fe0–24,SS ([2]; 20 mg, Day 14): 9.83 (24.1) % | BI 187004 Plasma Cday2 ([2]; 20 mg): 291 (23.3) nmol/L | BI 187004 Plasma Cday15 ([2]; 40 mg): 744 (25.8) nmol/L | fe0–24 ([2]; 40 mg, Day 1): 3.82 (27.3) % | CL/F SS ([2]; 40 mg, Day 14): 3.16 (21.1) L/h | fe0–24,SS ([2]; 40 mg, Day 14): 6.31 (26.7) % | BI 187004 Plasma Cday2 ([2]; 40 mg): 511 (23.9) nmol/L | BI 187004 Plasma Cday15 ([2]; 80 mg): 1,360 (24.8) nmol/L | fe0–24 ([2]; 80 mg, Day 1): 4.15 (39.3) % | CL/F SS ([2]; 80 mg, Day 14): 3.97 (26.4) L/h | fe0–24,SS ([2]; 80 mg, Day 14): 6.05 (27.0) % | BI 187004 Plasma Cday2 ([2]; 80 mg): 1,020 (30.0) nmol/L | BI 187004 Plasma Cday15 ([2]; 160 mg): 2,430 (54.7) nmol/L | fe0–24 ([2]; 160 mg, Day 1): 5.12 (11.6) % | CL/F SS ([2]; 160 mg, Day 14): 3.69 (37.9) L/h | fe0–24,SS ([2]; 160 mg, Day 14): 6.82 (21.6) % | BI 187004 Plasma Cday2 ([2]; 160 mg): 1,660 (57.7) nmol/L | BI 187004 Plasma Cday15 ([2]; 240 mg): 2,280 (76.0) nmol/L | fe0–24 ([2]; 240 mg, Day 1): 4.87 (24.4) % | fe0–24,SS ([2]; 240 mg, Day 14): 5.83 (22.7) % | BI 187004 Plasma Cday2 ([2]; 240 mg): 2,420 (50.6) nmol/L | BI 187004 Plasma Cday15 ([2]; 360 mg): 2,780 (19.6) nmol/L | fe0–24 ([2]; 360 mg, Day 1): 5.11 (22.4) % | CL/F SS ([2]; 360 mg, Day 14): 6.47 (12.3) L/h | fe0–24,SS ([2]; 360 mg, Day 14): 6.46 (8.01) % | BI 187004 Plasma Cday2 ([2]; 360 mg): 2,660 (36.5) nmol/L | dose proportionality of Cmax and AUCτ,ss ([2]; 10 to 360 mg): increased non-proportionally | time of absorption ([2]; 10–360 mg): ≤ 2 h | gMean oral clearance (CL/F,ss), range over dose groups ([2]; 10–360 mg, day 14): 2.01 to 6.47 L/h | accumulation in plasma ([2]; between days 1 and 14): limited | CL renal ([2]; 10 mg): 3.72 mL/min | CL renal ([2]; 20 mg): 4.3 mL/min | CL renal ([2]; 40 mg): 2.68 mL/min | CL renal ([2]; 80 mg): 3.47 mL/min | CL renal ([2]; 160 mg): 3.78 mL/min | CL renal ([2]; 240 mg): 4.38 mL/min | CL renal ([2]; 360 mg): 6.4 mL/min | Vd/F [2]: 195 to 1160 L | AUC ([2]; 10 mg): 14.5 µM·h | AUC(0-t) ([2]; 10 mg): 7.5 µM·h | Vd/F ([2]; 10 mg): 308 L | half-life ([2]; 10 mg): 106 h | Cmax ([2]; 10 mg, C max, 10 mg, Day 1): 0.681 µM | Cmax ([2]; 10 mg, C max,SS, 10 mg, Day 14): 1.24 µM | Tmax ([2]; 10 mg, 10 mg, Day 1): 2 h | Tmax ([2]; 10 mg, SS, 10 mg, Day 14): 0.834 h | AUC ([2]; 20 mg): 23 µM·h | AUC(0-t) ([2]; 20 mg): 13.9 µM·h | Vd/F ([2]; 20 mg): 253 L | half-life ([2]; 20 mg): 69.2 h | Cmax ([2]; 20 mg, C max, 20 mg, Day 1): 1.37 µM | Cmax ([2]; 20 mg, C max,SS, 20 mg, Day 14): 1.94 µM | Tmax ([2]; 20 mg, 20 mg, Day 1): 0.834 h | Tmax ([2]; 20 mg, SS, 20 mg, Day 14): 0.834 h | AUC ([2]; 40 mg): 26.9 µM·h | AUC(0-t) ([2]; 40 mg): 27.7 µM·h | Vd/F ([2]; 40 mg): 195 L | half-life ([2]; 40 mg): 42.8 h | Cmax ([2]; 40 mg, C max, 40 mg, Day 1): 2.92 µM | Cmax ([2]; 40 mg, C max,SS, 40 mg, Day 14): 3.4 µM | Tmax ([2]; 40 mg, 40 mg, Day 1): 1 h | Tmax ([2]; 40 mg, SS, 40 mg, Day 14): 0.834 h | AUC ([2]; 80 mg): 58.8 µM·h | AUC(0-t) ([2]; 80 mg): 46.5 µM·h | Vd/F ([2]; 80 mg): 346 L | half-life ([2]; 80 mg): 60.3 h | Cmax ([2]; 80 mg, C max, 80 mg, Day 1): 4.32 µM | Cmax ([2]; 80 mg, C max,SS, 80 mg, Day 14): 4.93 µM | Tmax ([2]; 80 mg, 80 mg, Day 1): 0.834 h | Tmax ([2]; 80 mg, SS, 80 mg, Day 14): 1.25 h | AUC ([2]; 160 mg): 127 µM·h | AUC(0-t) ([2]; 160 mg): 106 µM·h | Vd/F ([2]; 160 mg): 230 L | half-life ([2]; 160 mg): 43.1 h | Cmax ([2]; 160 mg, C max, 160 mg, Day 1): 11.5 µM | Cmax ([2]; 160 mg, C max,SS, 160 mg, Day 14): 12.1 µM | Tmax ([2]; 160 mg, 160 mg, Day 1): 1 h | Tmax ([2]; 160 mg, SS, 160 mg, Day 14): 0.667 h | AUC ([2]; 240 mg): 145 µM·h | AUC(0-t) ([2]; 240 mg): 130 µM·h | Vd/F ([2]; 240 mg): 359 L | half-life ([2]; 240 mg): 51.5 h | Cmax ([2]; 240 mg, C max, 240 mg, Day 1): 14.6 µM | Cmax ([2]; 240 mg, C max,SS, 240 mg, Day 14): 15 µM | Tmax ([2]; 240 mg, 240 mg, Day 1): 1 h | Tmax ([2]; 240 mg, SS, 240 mg, Day 14): 0.667 h | AUC ([2]; 360 mg): 162 µM·h | AUC(0-t) ([2]; 360 mg): 140 µM·h | Vd/F ([2]; 360 mg): 1160 L | half-life ([2]; 360 mg): 124 h | Cmax ([2]; 360 mg, C max, 360 mg, Day 1): 14.3 µM | Cmax ([2]; 360 mg, C max,SS, 360 mg, Day 14): 15.5 µM | Tmax ([2]; 360 mg, 360 mg, Day 1): 1 h | Tmax ([2]; 360 mg, SS, 360 mg, Day 14): 1.5 h | general disorders and administration site conditions (AE, system organ class) [3]: 14.3% | plasma protein binding [4]: no increase in plasma protein binding down to 10 nmol/L | total urinary corticosteroid excretion, % of baseline, range over dose groups ([5]; after 14 days of treatment): 176.2–253.5% | total urinary corticosteroid excretion increased to ([5]; highest dose-group value): 253.5% | increase in total urinary corticosteroid excretion ([5]; multiple doses, 14 days): 2.48 fold | clinical laboratory evaluations and vital signs ([6]; 10–360 mg over 14 days): no notable findings | hypoglycemic episodes ([6]; 10–360 mg over 14 days): No hypoglycemic episodes were reported | intensity of AEs ([6]; all dose groups): mild or moderate intensity | serious AE or death ([6]; during the trial): No serious AE or death occurred | AE leading to discontinuation of treatment ([6]; one patient, 360 mg, day 6, drug-related, moderate intensity): supraventricular tachycardia | pollakiuria (AE) ([6]; total BI 187004 group (6 patients, all 80–360 mg)): 10.7% | gastrointestinal disorders (AE) ([6]; total BI 187004 group (9 patients)): 16.1% | nervous system disorders (only disorder: headache) ([6]; total BI 187004 group (11 patients)): 19.6% | frequency of patients reported with any AE ([6]; total BI 187004 group (33 patients)): 58.9% | incidence of drug-related adverse events ([6]; total BI 187004 group, 10–360 mg once daily over 14 days (n=29)): 51.8% | BI 187004 AT Cday15 ([7]; 10 mg): 45.5 (37.0) nmol/L | BI 187004 AT Cday2 ([7]; 10 mg): 34.5 (38.3) nmol/L | BI 187004 AT Cday15 ([7]; 20 mg): 66.1 (25.5) nmol/L | BI 187004 AT Cday2 ([7]; 20 mg): 51.8 (83.7) nmol/L | BI 187004 AT Cday15 ([7]; 40 mg): 74.2 (29.6) nmol/L | BI 187004 AT Cday2 ([7]; 40 mg): 142 (72.1) nmol/L | BI 187004 AT Cday15 ([7]; 80 mg): 140 (28.4) nmol/L | BI 187004 AT Cday2 ([7]; 80 mg): 142 (55.9) nmol/L | BI 187004 AT Cday15 ([7]; 160 mg): 238 (56.6) nmol/L | BI 187004 AT Cday2 ([7]; 160 mg): 518 (65.7) nmol/L | BI 187004 AT Cday15 ([7]; 240 mg): 245 (62.8) nmol/L | BI 187004 AT Cday2 ([7]; 240 mg): 872 (54.6) nmol/L | BI 187004 AT Cday15 ([7]; 360 mg): 454 (29.3) nmol/L | BI 187004 AT Cday2 ([7]; 360 mg): 925 (41.7) nmol/L | blood cell partitioning [8]: no difference in blood cell partitioning at low concentrations | drug-related AEs ([9]; SRD study, healthy volunteers): 16.7% | half-life ([9]; single dose 5 mg, healthy volunteers): 33.5 h | half-life ([9]; single dose 360 mg, healthy volunteers): 13.9 h | increase of total urinary corticosteroid excretion ([9]; single doses 2.5–360 mg): up to 2 fold | mean ACTH levels [10]: increased but within the normal range
